Experimental data from patent publication US8841333B2, “Methods for treating nephrolithiasis” (Takeda Pharmaceuticals U.S.A., Inc., priority 2005, dated 2014).

Assay: Double-blind 4-week study plus open-label extension of febuxostat in hyperuricemic subjects with gout and a history of nephrolithiasis
Format: in vivo, human
Protocol: Eighteen (18) hyperuricemic subjects with gout and a history of nephrolithiasis in their medical history were examined. Specifically, these eighteen subjects were part of a double-blind (DB) four (4) week study in which they received 40, 80 or 120 mg once daily (hereinafter referred to as “QD”) of 2-[3-cyano-4-(2-methylpropoxy)phenyl]-4-methylthiazole-5-carboxylic acid (hereinafter called “febuxostat”) or a placebo, followed by an open-label (OL) extension study of febuxostat 80 mg QD titrated to 40 mg or 120 mg QD of febuxostat based on serum uric acid levels and adverse events. The subjects were predominantly male (specifically, sixteen (16)) Caucasian, with a mean age of 55 years. Eleven (11) of the subjects had gout for more than 10 years, five (5) subjects had gout for between 5 to 10 years and two (2) subjects had gout for between 1 to 5 years. Overall, subject experienced between 1 and 20 attacks over a 2 to 45 year period prior to baseline. Twelve (12) of the subjects were classified as renally impaired (their creatinine clearance was <80 ml/minute). Six (6) subjects were considered to be uric acid overproducers (urinary uric acid excretion was greater than 800 mg/day). Comorbid conditions in these subjects included the following: hyperlipidemia (78%), hypertension (72%), obesity (56%) and coronary artery disease (17%). The mean serum urate for these subjects at baseline was 10.0 mg/dL. All subjects completed this DB study. Fifteen (15) subjects rolled over to the OL study with thirteen (13) completing treatment for a duration of greater than thirty (30) months. The majority of subjects (11/13) received daily febuxostat in the amount of 80 mg QD with two (2) subjects having their dose titrated to febuxostat 120 mg QD as per study protocol because of a post-baseline serum urate of ≧6.0 mg/dL.

Cc1nc(-c2ccc(OCC(C)C)c(C#N)c2)sc1C(=O)O [febuxostat, 2-[3-cyano-4-(2-methylpropoxy)phenyl]-4-methylthiazole-5-carboxylic acid]
subjects reporting kidney stones (DB and OL portions, greater than 30 months of febuxostat treatment, three stones in total, one occurred on placebo, all calcium oxalate): 2 subjects out of the 18 subjects
adverse events (DB and OL study, febuxostat 40-120 mg QD): self-limiting and transient
mean reduction in serum urate (at last visit versus baseline, febuxostat 40, 80 or 120 mg QD): 47%
mean serum urate at last visit (hyperuricemic gout subjects with history of nephrolithiasis, febuxostat 40, 80 or 120 mg QD, baseline mean serum urate 10.0 mg/dL): 5.2 mg/dL
